In one test the target is T1, TLR2 (Homo sapiens, UniProt O60603).
T1 construct: endogenous in cells; host or cells: human CD14 monocytes
Put plainly: Precipitation of proteins from human CD14 monocyte lysate with labelled VB-201 or VB-221, Western blot. In kind it is binding. Particulars: ovalbumin-biotin labelled compound (OB201/OB221). The method, then: (§1) VB-201 and VB-221 were labeled with biotin as follows. VB-201, VB-221 and ovalbumin (OVA, Sigma, Israel) were dissolved in 0.1 M MES buffer (Thermo Scientific, Rockford, IL) and conjugated using EDC [1-ethyl-3-(dimethylaminopropyl) carbodiimide HCL] (Thermo Scientific) at a molar ratio of 100 (VB-201/VB-221):1 (OVA):240 (EDC) for 2-3 hr at room temperature. After which, samples were transferred to 10 kDa dialysis cassettes (Thermo Scientific) and dialyzed overnight against PBS. The ovalbumin bound VB-201 (OB201) and VB-221 (OB221) were then conjugated with amine-PEG2-biotin (in 0.1 M MES buffer) using EDC at a molar ratio of 1 (OB201/OB221):100 (amine-PEG2-biotin):700 (EDC). The reaction was allowed to proceed for 2-3 hours at room temperature after which samples were again transferred to a 10 kDa dialysis cassette and dialyzed overnight against PBS.
(§2) Cells were lysed using a 1% NP-40 lysis buffer containing 1:100 protease and phosphatase inhibitors, followed by 20 min incubation on ice and 15 min centrifugation at maximum speed. Samples were incubated overnight at 4° C. with solvent, OB201 or OB221 in a rotator. Streptavidin agarose beads (Sigma, Israel) were added for 2 hours. Protein elution was performed with lysis buffer without DTT for 10 min at room temperature. Sample loading, transfer and immuno-blotting were performed as described above. […]
(Immunoblotting shows a protein as a band on a membrane.)

Another test deals with human monocytes. Particulars: cited from earlier work.
In test [1] the test system is EGF induced phosphorylation of AKT. Kind of test: EGF-induced phosphorylation of AKT in MDA-231 cells, Western blot. Type of test: cell-based, human. To be noted: 20 min pre-incubation, EGF 200 ng/ml 10 min. How it is done:
In vitro: To test the effect of VB-201 on epidermal growth factor (EGF)-induced phosphorylation, MDA-231 breast cancer cells (10^6) were starved for 3 hours in 0.5% FCS medium, followed by incubation with various concentrations of VB-201 (1 μg/ml, 5 μg/ml, and 10 μg/ml) or a solvent control for 20 minutes. The MDA-231 cells were then activated with EGF (200 ng/ml) for 10 min. Phosphorylation of AKT was then analyzed by Western Blot. HSP90 was used for a loading control.

The target of test [2] is T2, MOSPD2 (Homo sapiens, UniProt Q8NHP6).
T2 sequence (Q8NHP6 1-518): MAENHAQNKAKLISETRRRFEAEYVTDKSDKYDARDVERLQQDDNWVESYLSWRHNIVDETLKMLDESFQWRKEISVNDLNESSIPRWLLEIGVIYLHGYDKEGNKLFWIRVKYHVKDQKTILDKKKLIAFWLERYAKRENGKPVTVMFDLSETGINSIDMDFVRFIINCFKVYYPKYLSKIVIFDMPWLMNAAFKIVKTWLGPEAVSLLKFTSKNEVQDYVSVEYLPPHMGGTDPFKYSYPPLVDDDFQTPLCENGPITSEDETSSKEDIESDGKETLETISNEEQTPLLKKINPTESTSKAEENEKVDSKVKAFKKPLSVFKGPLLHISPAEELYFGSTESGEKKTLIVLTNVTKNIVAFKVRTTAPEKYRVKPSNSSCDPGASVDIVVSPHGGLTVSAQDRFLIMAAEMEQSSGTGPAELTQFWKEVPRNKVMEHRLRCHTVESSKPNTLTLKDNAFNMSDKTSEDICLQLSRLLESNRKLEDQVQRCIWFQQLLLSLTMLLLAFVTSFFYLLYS
Put plainly: Binding to HEK293 cells transfected with HA-tagged human MOSPD2. On the set-up: expressed in transfected cells; host or cells: HEK293. To be noted: ovalbumin labeled compound. The source says:
VB-201 inhibits human monocyte chemotaxis in vitro and signaling pathways activated downstream of chemokine receptors.

For test [3], the target named is T2, MOSPD2. Kind of test: Precipitation of proteins from human CD14 monocyte lysate with labelled VB-201 or VB-221, Western blot. Type of test: binding. To be noted: ovalbumin-biotin labelled compound (OB201/OB221). More on the design: endogenous in cells; host or cells: human CD14 monocytes. The method, then: as §1, §2
The target of test [4] is T2, MOSPD2. Put plainly: Mass-Spectrometry differential display of proteins precipitated from human monocytes. In kind it is binding. More on the design: endogenous in cells; host or cells: human CD14 monocytes. To be noted: labeled compound. From the text:
Using labeled VB-201 and VB-221, proteins from human monocytes were precipitated and differential display by Mass-Spectrometry, was studied.

Entries after “also recorded” stand apart in the source; their conditions may differ.

T1 sequence (O60603 21-784): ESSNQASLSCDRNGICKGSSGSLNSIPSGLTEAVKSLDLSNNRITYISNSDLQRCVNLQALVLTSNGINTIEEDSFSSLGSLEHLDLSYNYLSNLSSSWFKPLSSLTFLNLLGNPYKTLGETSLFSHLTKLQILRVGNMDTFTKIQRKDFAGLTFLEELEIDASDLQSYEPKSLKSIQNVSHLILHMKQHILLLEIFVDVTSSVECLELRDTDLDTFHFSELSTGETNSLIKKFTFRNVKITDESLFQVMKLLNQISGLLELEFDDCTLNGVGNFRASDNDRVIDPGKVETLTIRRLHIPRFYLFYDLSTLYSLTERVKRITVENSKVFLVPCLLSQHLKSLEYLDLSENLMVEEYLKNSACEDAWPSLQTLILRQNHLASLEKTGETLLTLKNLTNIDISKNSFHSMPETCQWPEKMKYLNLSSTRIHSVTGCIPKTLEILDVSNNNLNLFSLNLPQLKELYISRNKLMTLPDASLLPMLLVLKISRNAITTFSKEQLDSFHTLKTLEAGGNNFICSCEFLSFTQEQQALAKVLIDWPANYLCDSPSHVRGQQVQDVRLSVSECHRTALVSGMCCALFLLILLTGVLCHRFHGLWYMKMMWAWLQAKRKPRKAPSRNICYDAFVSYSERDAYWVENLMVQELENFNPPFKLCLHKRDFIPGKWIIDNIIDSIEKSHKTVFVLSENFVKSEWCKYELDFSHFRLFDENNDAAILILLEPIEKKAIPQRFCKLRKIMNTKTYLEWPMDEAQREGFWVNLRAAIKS

Turning to `CCCCCCCCCCC(CCCCCCCC)COCC(COP(=O)([O-])OCC[N+](C)(C)C)OCCCCC(=O)O` (stereo not drawn) [VB-221, 1-(2′-octyl)dodecyl-2-(4′-carboxy)butyl-glycero-3-phosphocholine], the “precipitation of TLR2” value at TLR2 is reported as “comparable intensity”. Moreover, in the test with human monocytes, the “inhibition of monocyte chemotaxis / chemokine-induced signaling and migration” value is recorded as “does not inhibit; also recorded: did not inhibit”.

Turning to `CCCCCCCCCCCCCCCCOC[C@H](COP(=O)([O-])OCC[N+](C)(C)C)OCCCCC(=O)O` [VB-201, 1-hexadecyl-2-(4′-carboxy)butyl-glycero-3-phosphocholine], the results for the “inhibition of EGF induced phosphorylation of AKT” value in test [1] (5 μg/ml) and in test [1] (10 μg/ml) were “significant inhibition” and “nearly completely inhibits”, respectively. In addition, the “precipitation of TLR2” value at TLR2 is recorded as “comparable intensity”. For the same molecule, the “inhibition of monocyte chemotaxis / chemokine-induced signaling and migration” value with human monocytes is on record as “inhibits migration”. For the same molecule, on MOSPD2 [2], the “binding to HA-positive HEK293 cells expressing human MOSPD2” value is given as “strong binding”. The “binding / precipitation of MOSPD2” value at MOSPD2 [3] was “binds and precipitates MOSPD2; also recorded: markedly more intense than VB-221; also recorded: binds to MOSPD2”. In addition, the “binding of MOSPD2 by Mass-Spectrometry” value on MOSPD2 [4] is given as “strong binding”.

The values above are taken from US11945875B2, “Motile sperm domain containing protein 2 and cancer” (ImmuneWalk Therapeutics, Inc., priority 2015, dated 2024).
